Experiment: Modulation of CFTR F508 deletion/MF mutant in HBE cells assessed as change in short circuit current incubated for 18 to 24 hrs in presence of forskolin and amiloride by voltage-clamp based chamber assay
Format: cell-based
Conditions: Homo sapiens

In the case of Nc1cc(Br)c2nc1-c1nnc(o1)[C@@](O)(C(F)(F)F)CCCCC[C@@H]1CCCN21, the EC50 is reported as < 500 nM.
With Nc1cc(C(F)(F)F)c2nc1-c1nnc(o1)[C@@](O)(C(F)(F)F)CCCCC[C@@H]1CCCN21 the EC50 was < 500 nM.
For Nc1cc(C(F)(F)F)c2nc1-c1nnc(o1)[C@@](O)(C(F)(F)F)CCCCCC1(CCCCC1)N2, the EC50 was < 500 nM.
For Nc1cc(C(F)(F)F)c2nc1-c1nnc(o1)[C@@](O)(C(F)(F)F)CCCCCC(c1ccccn1)N2 (stereo partly specified), the EC50 was < 500 nM.
In the case of Nc1cc(S(=O)(=O)c2ccccc2)c2nc1-c1nnc(o1)[C@@](O)(C(F)(F)F)CCCCC[C@@H]1CCCN21, the EC50 is reported as < 500 nM.
For Nc1cc(C(F)(F)F)c2nc1-c1nnc(o1)[C@@](O)(C(F)(F)F)CCCCCC1(CCC1)N2, the EC50 was < 500 nM.

— ChEMBL document CHEMBL5120953, “Novel Macrocyclic 1,3,4-Oxadiazoles as CFTR Modulators for Treating Cystic Fibrosis” (ACS Med Chem Lett, 2022)
